Test results taken from US7674807B2, “Heterocycle-substituted n-phenyl-phthalamide derivatives, related compounds and their use as insecticides” (Bayer CropScience AG, priority 2004, dated 2010).

Legend:
[1] = test system: Myzus persicae resistant to organophosphorous agents and carbamates; experiment: Test against Myzus persicae resistant to organophosphorous agents and carbamates (spray on eggplant seedlings); type: in vivo; settings: 100 ppm concentration of the effective component; 7 days after spraying; green house of 28° C.
Protocol: About 30 bred Myzus persicae resistant to organophosphorous agents and carbamates were inoculated per 1 seedling of eggplant planted in a vinyl pot of 6 cm diameter. One day after the inoculation, a sufficient amount of a diluted aqueous solution of a prescribed concentration of an active compound prepared as mentioned above, was sprayed by using a spray gun. After spraying it was placed in a green house of 28° C. and the rate of death was calculated 7 days after the spraying. Test was repeated twice.

[2] = test system: larva of Cnaphalocrocis medinalis Guenee; experiment: Test against larva of Cnaphalocrocis medinalis Guenee (sprayed paddy rice foliage); type: in vivo; settings: 20 ppm concentration of the active component; second instar larvae; counted after 7 days; 25° C.
Outline: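 Potted rice (Tamanishiki) sprayed with aqueous dilutions of compound at the prescribed concentration; air-dried leaf pieces placed in dishes with five 2nd-instar larvae at 25° C, fresh treated foliage added at days 2 and 4. Mortality counted at day 7, averaged over 2 dishes.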

[3] = test system: larva of Spodoptera litura; experiment: Test against larva of Spodoptera litura (leaf dip, sweet potato leaves); type: in vivo; settings: 20 ppm concentration of the active component; third instar larvae; counted after 7 days; 25° C.
Outline: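 Sweet potato leaves were dipped in emulsified compound diluted with water, air-dried, and given to 10 third-instar larvae per dish at 25° C, with fresh leaves added on days 2 and 4. Mortality was counted after 7 days and averaged over 2 dishes.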

For `Cc1cc(Cn2nc(C(F)(F)F)nc2C(F)(F)F)ccc1NC(=O)c1cccc(Cl)c1C(=O)NC(C)CS(C)(=O)=O` (centres unmarked) [compound 144], the “controlling effect, rate of death” value [1] was 100%, the “controlling effect, rate of death” value [2] was 100% and the “controlling effect, rate of death” value [3] was 100%.
With `CCS(=O)(=O)CC(C)NC(=O)c1c(I)cccc1C(=O)Nc1ccc(Cn2nc(C(F)(F)F)nc2C(F)(F)F)cc1C` (centres unmarked) [compound 222] the “controlling effect, rate of death” value [1] was 100%, the “controlling effect, rate of death” value [2] was 100% and the “controlling effect, rate of death” value [3] was 100%.
In the case of `CSCC(C)NC(=O)c1c(I)cccc1C(=O)Nc1ccc(Cn2nc(C(F)(F)C(F)(F)F)nc2C(F)(F)F)cc1C` (centres unmarked) [compound 226], the “controlling effect, rate of death” value [1] was 100%, the “controlling effect, rate of death” value [2] was 100% and the “controlling effect, rate of death” value [3] was 100%.
For `Cc1cc(C(C)n2nc(C(F)(F)F)nc2C(F)(F)F)ccc1NC(=O)c1cccc(Cl)c1C(=O)N[C@@H](C)CS(C)(=O)=O` (some centres unmarked) [compound 570], the “controlling effect, rate of death” value [1] was 100%, the “controlling effect, rate of death” value [2] was 100% and the “controlling effect, rate of death” value [3] was 100%.
With `CSCC(C)NC(=O)c1c(Cl)cccc1C(=O)Nc1ccc(Cn2nc(C(F)(F)F)nc2C(F)(F)F)cc1C` (centres unmarked) [compound 141] the “controlling effect, rate of death” value [1] was 100%, the “controlling effect, rate of death” value [2] was 100% and the “controlling effect, rate of death” value [3] was 100%.
In the case of `CSCC(C)NC(=O)c1c(Br)cccc1C(=O)Nc1ccc(Cn2nc(C(F)(F)F)nc2C(F)(F)F)cc1C` (centres unmarked) [compound 178], the “controlling effect, rate of death” value [1] was 100%.
With `Cc1cc(Cn2nc(C(F)(F)F)nc2C(F)(F)F)ccc1NC(=O)c1cccc(Br)c1C(=O)NC(C)CS(C)(=O)=O` (centres unmarked) [compound 181] the “controlling effect, rate of death” value [1] was 100%, the “controlling effect, rate of death” value [2] was 100% and the “controlling effect, rate of death” value [3] was 100%.
For `Cc1cc(Cn2nc(C(F)(F)F)nc2C(F)(F)F)ccc1NC(=O)c1cccc(Br)c1C(=O)NC(C)(C)CS(C)(=O)=O` [compound 176], the “controlling effect, rate of death” value [1] was 100%, the “controlling effect, rate of death” value [2] was 100% and the “controlling effect, rate of death” value [3] was 100%.
With `CSCC(C)(C)NC(=O)c1c(I)cccc1C(=O)Nc1ccc(Cn2nc(C(F)(F)F)nc2C(F)(F)F)cc1C` [compound 211] the “controlling effect, rate of death” value [1] was 100%, the “controlling effect, rate of death” value [2] was 100% and the “controlling effect, rate of death” value [3] was 100%.
For `CC[S+]([O-])CC(C)NC(=O)c1c(Cl)cccc1C(=O)Nc1ccc(Cn2nc(C(F)(F)F)nc2C(F)(F)F)cc1C` (centres unmarked) [compound 147], the “controlling effect, rate of death” value [1] was 100%, the “controlling effect, rate of death” value [2] was 100% and the “controlling effect, rate of death” value [3] was 100%.
In the case of `Cc1cc(C(C)n2nc(C(F)(F)C(F)(F)F)nc2C(F)(F)F)ccc1NC(=O)c1cccc(Cl)c1C(=O)N[C@@H](C)C[S+](C)[O-]` (some centres unmarked) [compound 579], the “controlling effect, rate of death” value [1] was 100%, the “controlling effect, rate of death” value [2] was 100% and the “controlling effect, rate of death” value [3] was 100%.
In the case of `CCSCC(C)NC(=O)c1c(I)cccc1C(=O)Nc1ccc(Cn2nc(C(F)(F)F)nc2C(F)(F)F)cc1C` (centres unmarked) [compound 220], the “controlling effect, rate of death” value [1] was 100%, the “controlling effect, rate of death” value [2] was 100% and the “controlling effect, rate of death” value [3] was 100%.
In the case of `CSCC(C)(C)NC(=O)c1c(I)cccc1C(=O)Nc1ccc(C(C)n2ccc(C(F)(F)F)n2)cc1C` (centres unmarked) [compound 558, N^2-(1,1-dimethyl-2-methylsulfanyl-ethyl)-3-iodo-N^1-{2-methyl-4-[1-(3-trifluoromethyl-1H-pyrazol-1-yl)-ethyl]-phenyl}-phthalamide], the melting point was 79 to 86 °C.
For `CSCC(C)NC(=O)c1c(I)cccc1C(=O)Nc1ccc(Cn2nc(C(F)(F)F)nc2C(F)(F)F)cc1C` (centres unmarked) [compound 214], the “controlling effect, rate of death” value [1] was 100%, the “controlling effect, rate of death” value [2] was 100% and the “controlling effect, rate of death” value [3] was 100%.
With `CSCC(C)NC(=O)c1c(I)cccc1C(=O)Nc1ccc(Cn2nc(C(F)(F)F)nc2C(F)(F)F)cc1C` (centres unmarked) [compound 215] the “controlling effect, rate of death” value [1] was 100%, the “controlling effect, rate of death” value [2] was 100% and the “controlling effect, rate of death” value [3] was 100%.
In the case of `Cc1cc(Cn2nc(C(F)(F)F)nc2C(F)(F)F)ccc1NC(=O)c1cccc(I)c1C(=O)NC(C)CS(C)(=O)=O` (centres unmarked) [compound 218], the “controlling effect, rate of death” value [1] was 100%, the “controlling effect, rate of death” value [2] was 100% and the “controlling effect, rate of death” value [3] was 100%.
With `CCS(=O)(=O)CC(C)NC(=O)c1c(Cl)cccc1C(=O)Nc1ccc(Cn2nc(C(F)(F)F)nc2C(F)(F)F)cc1C` (centres unmarked) [compound 148] the “controlling effect, rate of death” value [1] was 100%, the “controlling effect, rate of death” value [2] was 100% and the “controlling effect, rate of death” value [3] was 100%.
For `Cc1cc(Cn2nc(C(F)C(F)(F)F)nc2C(F)(F)F)ccc1NC(=O)c1cccc(Cl)c1C(=O)N[C@@H](C)C[S+](C)[O-]` (some centres unmarked) [compound 797], the “controlling effect, rate of death” value [1] was 100%.
For `CSCC(C)NC(=O)c1c(Cl)cccc1C(=O)Nc1ccc(Cn2nc(C(F)(F)F)nc2C(F)(F)F)cc1C` (centres unmarked) [compound 140], the “controlling effect, rate of death” value [1] was 100%, the “controlling effect, rate of death” value [2] was 100% and the “controlling effect, rate of death” value [3] was 100%.
For `Cc1cc(C(C)n2nc(C(F)(F)F)nc2C(F)(F)F)ccc1NC(=O)c1cccc(Cl)c1C(=O)N[C@@H](C)C[S+](C)[O-]` (some centres unmarked) [compound 569], the “controlling effect, rate of death” value [1] was 100%.
In the case of `Cc1cc(Cn2nc(C(F)(F)F)nc2C(F)(F)F)ccc1NC(=O)c1cccc(Br)c1C(=O)NC(C)C[S+](C)[O-]` (centres unmarked) [compound 180], the “controlling effect, rate of death” value [1] was 100%, the “controlling effect, rate of death” value [2] was 100% and the “controlling effect, rate of death” value [3] was 100%.
With `Cc1cc(Cn2cc(C(F)(F)C(F)(F)F)c(C(F)(F)C(F)(F)C(F)(F)F)n2)ccc1NC(=O)c1cccc(I)c1C(=O)N[C@@H](C)C[S+](C)[O-]` (some centres unmarked) [compound 920] the “controlling effect, rate of death” value [1] was 100%, the “controlling effect, rate of death” value [2] was 100% and the “controlling effect, rate of death” value [3] was 100%.
With `CSCC(C)(C)NC(=O)c1c(Br)cccc1C(=O)Nc1ccc(Cn2nc(C(F)(F)F)nc2C(F)(F)F)cc1C` [compound 174] the “controlling effect, rate of death” value [1] was 100%, the “controlling effect, rate of death” value [2] was 100% and the “controlling effect, rate of death” value [3] was 100%.
In the case of `CSCC(C)NC(=O)c1c(I)cccc1C(=O)Nc1ccc(Cn2nc(C(F)(F)F)nc2C(F)F)cc1C` (centres unmarked) [compound 239], the “controlling effect, rate of death” value [1] was 100%.
In the case of `CCSCC(C)NC(=O)c1c(Cl)cccc1C(=O)Nc1ccc(Cn2nc(C(F)(F)F)nc2C(F)(F)F)cc1C` (centres unmarked) [compound 146], the “controlling effect, rate of death” value [1] was 100%, the “controlling effect, rate of death” value [2] was 100% and the “controlling effect, rate of death” value [3] was 100%.
For `Cc1cc(C(C)n2nc(C(F)(F)F)nc2C(F)(F)F)ccc1NC(=O)c1cccc(I)c1C(=O)N[C@@H](C)C[S+](C)[O-]` (some centres unmarked) [compound 572], the “controlling effect, rate of death” value [1] was 100%, the “controlling effect, rate of death” value [2] was 100% and the “controlling effect, rate of death” value [3] was 100%.
For `Cc1cc(Cn2nc(C(F)(F)F)nc2C(F)(F)F)ccc1NC(=O)c1cccc(I)c1C(=O)NC(C)(C)CS(C)(=O)=O` [compound 213], the “controlling effect, rate of death” value [1] was 100%, the “controlling effect, rate of death” value [2] was 100% and the “controlling effect, rate of death” value [3] was 100%.
In the case of `Cc1cc(Cn2nc(C(F)(F)F)nc2C(F)F)ccc1NC(=O)c1cccc(I)c1C(=O)NC(C)CS(C)(=O)=O` (centres unmarked) [compound 243], the “controlling effect, rate of death” value [1] was 100%.
With `CSC[C@H](C)NC(=O)c1c(I)cccc1C(=O)Nc1ccc(Cn2cc(C(F)(F)C(F)(F)F)c(C(F)(F)F)n2)cc1C` [compound 640] the “controlling effect, rate of death” value [2] was 100% and the “controlling effect, rate of death” value [3] was 100%.
